One assay has as its target T1, P2X purinoceptor 3 (Rattus norvegicus, UniProt P49654).
T1 sequence (P49654 whole entry): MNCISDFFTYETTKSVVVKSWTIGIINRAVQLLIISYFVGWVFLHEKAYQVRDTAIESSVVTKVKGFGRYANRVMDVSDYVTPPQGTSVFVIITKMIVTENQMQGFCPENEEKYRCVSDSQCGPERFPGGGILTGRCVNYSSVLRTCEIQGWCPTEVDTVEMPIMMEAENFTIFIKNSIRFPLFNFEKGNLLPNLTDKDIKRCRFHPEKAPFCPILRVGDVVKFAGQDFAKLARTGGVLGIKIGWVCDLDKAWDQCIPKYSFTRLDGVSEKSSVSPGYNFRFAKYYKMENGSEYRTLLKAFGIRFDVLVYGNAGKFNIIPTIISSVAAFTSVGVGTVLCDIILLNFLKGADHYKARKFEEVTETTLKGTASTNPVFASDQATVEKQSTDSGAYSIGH
The assay is described as follows: Antagonist activity at rat recombinant P2X3 receptor expressed in CHO cells by FLIPR assay.

Assay [1] has as its target T2, P2X2/P2X3 heterotrimeric receptor (Homo sapiens, UniProt P56373+Q9UBL9).
T2 sequence (Q9UBL9 whole entry): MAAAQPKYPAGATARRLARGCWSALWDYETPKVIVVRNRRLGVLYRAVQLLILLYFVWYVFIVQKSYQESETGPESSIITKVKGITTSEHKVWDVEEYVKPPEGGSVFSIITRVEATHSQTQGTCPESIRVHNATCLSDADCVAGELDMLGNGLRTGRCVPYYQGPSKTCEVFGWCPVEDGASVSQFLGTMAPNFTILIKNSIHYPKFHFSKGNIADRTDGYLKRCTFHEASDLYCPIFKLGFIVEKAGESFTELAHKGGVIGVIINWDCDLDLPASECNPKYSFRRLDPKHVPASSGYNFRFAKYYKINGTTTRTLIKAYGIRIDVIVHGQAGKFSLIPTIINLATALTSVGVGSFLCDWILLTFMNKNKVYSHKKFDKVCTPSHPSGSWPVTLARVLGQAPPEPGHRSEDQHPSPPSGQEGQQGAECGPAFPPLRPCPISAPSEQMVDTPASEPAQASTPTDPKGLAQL
T2 sequence (P56373 whole entry): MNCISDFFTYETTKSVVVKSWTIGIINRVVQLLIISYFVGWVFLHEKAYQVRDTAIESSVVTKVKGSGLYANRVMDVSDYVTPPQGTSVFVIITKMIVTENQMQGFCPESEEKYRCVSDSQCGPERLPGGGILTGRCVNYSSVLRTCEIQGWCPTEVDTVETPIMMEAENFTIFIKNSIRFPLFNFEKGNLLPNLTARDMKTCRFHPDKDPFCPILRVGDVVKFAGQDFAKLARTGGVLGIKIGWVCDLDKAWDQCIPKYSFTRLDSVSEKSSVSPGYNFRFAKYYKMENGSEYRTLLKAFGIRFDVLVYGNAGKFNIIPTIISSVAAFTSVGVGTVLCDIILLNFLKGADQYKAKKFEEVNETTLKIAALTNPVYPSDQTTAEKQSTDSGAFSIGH
Kind of assay: Antagonist activity at human recombinant P2X2/3 receptor expressed in human 1321N1 cells by FLIPR assay. In kind it is functional, cell-based.

The record followed here is ChEMBL document CHEMBL1153301, “Identification and SAR of novel diaminopyrimidines. Part 1: The discovery of RO-4, a dual P2X(3)/P2X(2/3) antagonist for the treatment of pain” (Bioorg Med Chem Lett, 2009).

pIC50: −log10 of the molar value.

By pIC50 is commonly meant −log10 of the IC50, conventionally taken in molar units. As for `COc1ccc(C(C)C)c(Oc2cnc(N)nc2N)c1`, the negative-log IC50 (pIC50) was 6.40 at P2X purinoceptor 3 and 6.80 in assay [1].
In the same order, the values of `COc1cc(C(C)C)c(Oc2cnc(N)nc2N)cc1C` are 7.00 and 6.40.
In the same order, the values of `COc1cc(C(C)C)c(Oc2cnc(N)nc2N)cc1Cl` are 7.60 and 7.00.
For `COc1cc(C(C)C)c(Oc2cnc(N)nc2N)cc1C#N` the same measures were 6.20 and 5.60.
As for `COc1cc(Cc2cnc(N)nc2N)c(C2CCC2)cc1OC`, the pIC50 (at P2X purinoceptor 3; in assay [1]) was under 5.00 in each case.
Consider `COc1cc(C(C)C)c(C(O)c2cnc(N)nc2N)cc1OC` (centres undefined), for which the negative logarithm of the IC50 (pIC50) (at P2X purinoceptor 3; in assay [1]) was under 5.00 throughout.
Consider `COc1cc(C(=O)c2cnc(N)nc2N)c(C(C)C)cc1OC`, for which the pIC50 (at P2X purinoceptor 3; in assay [1]) was under 5.00 in each case.
For the compound `COc1cc(C(C)C)c(Oc2cnc(N)nc2N)cc1S(C)(=O)=O`, the negative logarithm of the IC50 (pIC50) was 7.00 at P2X purinoceptor 3 and 6.00 in assay [1].
For `COc1cc(C(C)C)c(Oc2cnc(N)nc2N)cc1-c1ncc[nH]1` the same measures were 6.80 and 6.20.
In the same order, the values of `COc1cc(C(C)C)c(Oc2cnc(N)nc2N)cc1C1=NCCN1` are under 5.00 and under 5.00.
In the same order, the values of `COc1cc(Oc2cnc(N)nc2N)c(C(C)C)cc1I` are 7.40 and 6.40.
Regarding `COc1cc(C(C)C)c(Oc2cnc(N)nc2N)cc1C(C)C`, the values for the pIC50 (on P2X purinoceptor 3; in assay [1]) were 6.30 and 5.70, respectively.
As to `COc1cc(Cc2cnc(N)nc2N)c(C2CC2)cc1OC`, the results for the pIC50 (on P2X purinoceptor 3; in assay [1]) were 5.90 and under 5.00, respectively.
In the same order, the values of `COc1cc(Cc2cnc(N)nc2N)c(CC(C)C)cc1OC` are under 5.00 and 5.00.
Turning to `CCc1cc(OC)c(OC)cc1Cc1cnc(N)nc1N`, the pIC50 in assay [1] is under 5.00.
`COc1cc(Cc2cnc(N)nc2N)c(C(C)C)cc1OC`: in assay [1], the negative-log IC50 (pIC50) is 5.70.
Take `CCc1cc(OC)c(OC)cc1Oc1cnc(N)nc1N`: the figures for the pIC50 (at P2X purinoceptor 3; in assay [1]) were 6.80 and 5.70, respectively.
On to `COc1cc(Oc2cnc(N)nc2N)c(C(C)C)cc1OC`, for which the negative-log IC50 (pIC50) on P2X purinoceptor 3 is 7.60.
For `CC(C)c1ccccc1Oc1cnc(N)nc1N`, the pIC50 is 5.40 on P2X purinoceptor 3 and 5.70 in assay [1].
For `COc1cc(Oc2cnc(N)nc2N)c(C(C)C)cc1C#N` the same measures were under 5.00 and under 5.00.
In the same order, the values of `COc1cc(C(C)C)c(Oc2cnc(N)nc2N)cc1F` are 5.50 and 5.80.
In the same order, the values of `COc1cc(C(C)C)c(Oc2cnc(N)nc2N)cc1-c1ccccc1` are 6.00 and 5.60.
With `COc1cc(C(C)C)c(Oc2cnc(N)nc2N)cc1Br`, the pIC50 is 7.70 on P2X purinoceptor 3 and 7.10 in assay [1].
Turning to `C#Cc1cc(Oc2cnc(N)nc2N)c(C(C)C)cc1OC`, the pIC50 in assay [1] was 7.90.
Same read-out and setting: the value for `COc1cc(Cc2cnc(N)nc2N)c(C(C)(C)C)cc1OC` was under 5.00.
Regarding `COc1cc(C(C)C)c(Oc2cnc(N)nc2N)cc1C(=O)O`, the results for the pIC50 (on P2X purinoceptor 3; in assay [1]) were 6.80 and 6.50, respectively.
Consider `CCc1cc(Oc2cnc(N)nc2N)c(C(C)C)cc1OC`, for which the negative-log IC50 (pIC50) at P2X purinoceptor 3 was 7.30; in assay [1], 6.80.
Consider `COc1ccc(Oc2cnc(N)nc2N)c(C(C)C)c1`, for which the pIC50 was 5.80 on P2X purinoceptor 3 and 6.40 in assay [1].
Turning to `CCc1cc(OC)c(OC)cc1CCc1cnc(N)nc1N`, the pIC50 (at P2X purinoceptor 3; in assay [1]) was under 5.00 each time.
As to `COc1cc(C(C)C)c(Oc2cnc(N)nc2N)cc1C(N)=O`, the pIC50 on P2X purinoceptor 3 is 7.00; in assay [1], 5.80.
In the same order, the values of `COc1cc(C(C)C)c(Oc2cnc(N)nc2N)cc1-c1nnn[nH]1` are 7.40 and 6.50.
In the same order, the values of `COc1cc(Oc2cnc(N)nc2N)c(C(C)C)cc1-c1ccc(F)cc1` are 5.60 and 5.10.
For `COc1cc(Oc2cnc(N)nc2N)c(C(C)C)cc1Br` the same measures were 7.10 and 6.50.
Turning to `CCCc1cc(OC)c(OC)cc1Cc1cnc(N)nc1N`, in assay [1], the negative-log IC50 (pIC50) was under 5.00.
In the case of `COc1cc(C)c(Cc2cnc(N)nc2N)cc1OC` [ORMETOPRIM], the pIC50 (at P2X purinoceptor 3; in assay [1]) was under 5.00 each time.
